Source: publication PMC5979600, “An Organic Solvent-Tolerant Lipase with Both Hydrolytic and Synthetic Activities from the Oleaginous Fungus Mortierella echinosphaera” (International Journal of Molecular Sciences, 2018)

System: T1, extracellular lipase from Mortierella echinosphaera CBS 575.75 (M. echinosphaera lipase)
T1 construct: native enzyme purified from culture filtrate (ammonium sulfate, Sephadex G-75, Macro-Prep High Q, Sephacryl S-200 HR); about 30 kDa by SDS-PAGE
Assay: p-nitrophenol release, Lineweaver-Burk
Assay type: biochemical
Settings: pH 6.8, 25 °C, 30 min, 0.05-3.2 mM substrate; free enzyme

| SMILES | Km [µM] |
| --- | --- |
| CCCCCCCCCC(=O)Oc1ccc([N+](=O)[O-])cc1 [pNP-decanoate] | 333 |
| CCCCCCCCCCCCCCCC(=O)Oc1ccc([N+](=O)[O-])cc1 [p-nitrophenyl palmitate] | 336 |
